This test relates to rat. The test is described as follows: Established adjuvant arthritis (adjuvant-induced polyarthritis in the rat). Conditions: 50 mg/kg b.i.d. The class given is in vivo, female Lewis rats. As to the method: The procedures for this test have been described in detail by R. Vinegar, J. F. Truax, J. L. Selph. A. Lea, and P. R. Johnston (J. Immunopharmacol. 1:497-520, 1979). The rats used in these studies were female Lewis rats whose starting weight was 190±10 g. Arthritic rats were assigned to treatment groups consisting of six animals each. Fed rats were dosed by oral gavage starting on day 21 post adjuvant injection; therapy was continued until day 28. The incidence and severity of arthritic lesions were assessed using a modification of the scoring procedure described by H. L. F. Currey and M. Ziff (J. Exp. Med. 121:185-203, 1968). Briefly, the bilateral joints were scored for erythema, edema, and ankylosis as outlined below:
The maximal possible score per rat was 40. Experimental results were analyzed by one-way ANOVA, followed by post hoc comparisons of treatment effects versus untreated arthritic control using the Newman-Keuls test. The percent inhibition of each drug-treated group was calculated from the mean relative to the arthritic control.

Turning to `NC(=O)/C=C1\CCc2c(F)cc(F)cc21` [Example 5, (E)-2-(4,6 Difluoro-1-indanylidene)acetamide], the arthritic scores result (oral gavage, days 22, 25, and 27, versus untreated arthritic control) is “significantly (p<0.01) lowered arthritic scores”. In addition, under “postmortem on day 27”, the Spleen weight result is “significantly reduced (p<0.01)” and the plasma fibrinogen result is listed as “significantly reduced (p<0.01)”.

The values above are taken from patent US6124284A, “Bicyclic amide derivatives and their use as muscle relaxants” (Glaxo Wellcome Inc., priority 1998, dated 2000).
